The values below come from PMC7735735, “Store-Operated Calcium Entry as a Therapeutic Target in Acute Pancreatitis: Discovery and Development of Drug-Like SOCE Inhibitors” (Journal of Medicinal Chemistry, 2020).

One series has as its system chemically induced AP. More on the design: method as in PMID 31050811. The following applies: three different murine models; cited from earlier work.
Series [1] deals with HEK cells. Briefly: HEK cell viability after 72 h at 50 μM with or without uridine (involvement of DHODH). The following applies: for cell viability / cytotoxicity at 50 μM, 72 h / reversal of cytotoxicity by uridine: 50 μM, 72 h; for reversal of cytotoxicity by uridine: uridine 100 μM.
Series [2] concerns SOCE. More on the design: method as in PMID 30347159. The following applies: cited from earlier work.
The subject of a further series is cerulein-induced AP. More on the design: method as in PMID 30347159. Conditions: rodents; cited from earlier work.
Series [3] deals with SOCE. Nature of the series: SOCE inhibition in HEK cells by fluorescence microscopy (calcium imaging). Type of series: cell-based, human. The following applies: for AUC, peak amplitude, and slope of the Ca2+-rise: selected compounds. How it is done:
With these two compounds in hand, two click reactions were performed and compounds 9 and 18 (Table 1), displaying the same substructures as the reference compound Synta66, were obtained with a yield of 31 and 60%, respectively. 9 and 18 were tested for activity on SOCE in HEK cells, a human embryonic kidney (HEK) cell line, by fluorescence microscopy, as described elsewhere.[16] After 600 s, Ca^2+ was added and intracellular levels were measured.
Screening, dose–response experiments, and calcium imaging experiments were performed in HEK cells (ATCC, Rock, ville, MD, USA), as already reported elsewhere.[16]

The nature of series [4]: Thermodynamic aqueous solubility and solubility in in vivo vehicles. Type of series: physicochemical. The method, then:
Thermodynamic aqueous solubility was determined as follows: about 3 mg of the tested compound was weighed and dissolved in 3 mL of deionized water. After vigorous mixing by vortex followed by sonication for 5 min, the resulting supersaturated solution was shaken horizontally overnight at 25 °C. After filtration over a syringe filter (pore 0.22 μm, regenerate cellulose membrane), 100 μL of DMSO was added to 1 mL of the filtered solution. The resulting solution was further diluted in water (typically 1:10) before LC–UV analysis. Aqueous solubility was calculated comparing the filtrate peak area to those of the tested compound DMSO solutions. Solubility in aqueous media was also checked in the following vehicles at the target concentration of 6 mg/mL: saline + 10% DMSO, saline + 10% DMSO + 20% PEG400, saline + 5% ethanol.

Series [5] in a line: In vitro metabolic stability in mouse liver microsomes. Type of series: in vitro ADME. The following applies: MLMs, 50 μM substrate, 3 mM GSH trapping agent, HRMS. The method, then: Next, the in vitro metabolic stability of the five candidates (31, 34, 36, 38, and 40) was evaluated in mouse liver microsomes (MLMs) activated by NADPH by measuring the substrate residual after 1 h. For comparative purposes, Synta66 was incubated in the same conditions.
Phase I and II (glucuronidation) incubations were performed in MLMs (pooled male mouse CD-1, protein concentration: 20 mg/mL, purchased from Corning B.V. Life Sciences—Amsterdam, The Netherlands) using the procedure previously described[16] with the following modifications: 5 μM substrate concentration for the determination of the residual percentage and 50 μM for 34 metabolite characterization by HRMS; when metabolic activation was studied, 3 mM GSH trapping agent was added in the incubation mixture.
In general terms: Liver microsomes are vesicles of endoplasmic reticulum, rich in cytochrome P450 enzymes.

Another series can be described thus: PK analysis in mice. Type of series: in vivo. The following applies: C57BL/6, mouse, plasma, 7 mg/kg. The method, then: To further characterize the compound, a PK analysis was performed in mice. Briefly, mice were injected with 34 (i.v., 7 mg/kg, once) and serial blood sampling was performed.
(§1) All animal experiments observe the regulations in Italy (D.M. 116192) as well as the EU regulations (O.J. of E.C. L 358/1 12/18/1986). Compound 34 was injected i.v. at a dose of 7 mg/kg in C57BL/6 mice. Blood was collected after 5, 15, 30, 60, 120, 240, 360 min and 24 h. Aliquots of plasma samples were analyzed as previously reported.[16] AP was induced in mice by i.p. injections of cerulein, as already reported elsewhere.[16]
In vivo PK evaluation of compound 34.
Table S6. PK parameters of single administration of compound 34 (e.v., 7 mg/kg, n=5)
Parameter Unit Value S.D.

The test system of series [6] is cerulein-induced murine model of AP. Briefly: Cerulein-induced murine model of AP. Conditions: 10 mg/kg i.p. 30 and 150 min after first cerulein injection; tissue collected at 5 h. Type of series: in vivo, mouse. How it is done:
The PK profile of our candidate prompted us to investigate its efficacy in a cerulein-induced murine model of AP.[29]
as §1

The next series relates to ICRAC. More on the design: method as in PMID 19648266. The following applies: cited from earlier work.
For series [7], the system named is HEK cells.
Series [8] has as its system SOCE. More on the design: method as in PMID 29038464. Conditions: HEK cells; cited from earlier work.
[9] abbreviates: intravenous, Table S6, single administration, e.v., n=5.
Setting [10] is: iv, mice, i.v., once, read-out: half-life (t1/2) (converted).

“Also recorded” adds a separate entry of the source. Like-named read-outs stand apart in the source and are kept apart here.

Consider `Cc1cccc(F)c1C(=O)Nc1cnc(-c2cc3c(cc2Cl)OC(F)(F)O3)cn1` [CM4620, reference compound], for which the “protection in murine models of chemically induced AP” value in the series with chemically induced AP is recorded as “protective”. Besides, in the series with HEK cells [1], the “cell viability / cytotoxicity at 50 μM, 72 h” value (from here on “cell viability / cytotoxicity”) is reported as “cytotoxic” and the “reversal of cytotoxicity by uridine” value is on record as “not reverted by uridine”.

`CCCC(C)OC(=O)c1cnn(-c2ccc(-n3cc(-c4cccc(C(=O)O)c4)nn3)cc2)c1C(F)(F)F` (centres unmarked) [Compound 3]: the IC50 in the series on SOCE [2] was 4.4 µM. Further, the “efficacy in cerulein-induced AP” value with cerulein-induced AP is “demonstrated efficacy; also recorded: significantly ameliorate cerulein-induced AP in rodents without signs of toxicity”.

For the compound `COc1cccc(-c2ccc(-n3cc(-c4cccc(C(=O)O)c4)nn3)cc2)c1OC` [Compound 34, 3-(1-(2′,3′-Dimethoxy-[1,1′-biphenyl]-4-yl)-1H-1,2,3-triazol-4-yl)benzoic Acid], in the series with SOCE [3] (HEK cells, Figure S1), the “AUC compared to the reference compound Synta66” value was “significantly reducing the AUC”; the “AUC, peak amplitude, and slope of the Ca2+-rise” value (“AUC, peak amplitude, and slope” below) was “induced a drop in the three parameters”. Also, the “solubilization at 6 mg/mL in saline containing 10% DMSO + 20% PEG400” value in series [4] (nominal concentration 6 mg/mL, vehicle for in vivo administration) was “limpid solution”. For the same compound, in series [4] (sodium salts), the “increase in aqueous solubility of 34 compared to 36” value was 80 fold. In addition, the solubility in series [4] (thermodynamic, deionized water, 25 °C overnight, biphenyl triazoles as sodium salts, read-out: H2O solubility) was determined as 1530 µg/mL. Also, in series [5], the “formation of glutathione (GSH) adducts” value was “did not highlight the formation of glutathione (GSH) adducts”. In “PK analysis in mice” (setting [9]), the Cmax came out at 16800 ng/mL and the Tmax was 0.2 h. The concentration in the series “PK analysis in mice” (iv, mice, once) peaked (Cmax) at 16800 ng/mL. In addition, in the series “PK analysis in mice” (iv, mice, i.v., once, read-out: clearance (Cl) (converted)), the clearance at 24 h is 8.33 mL/min/kg. In “PK analysis in mice” (setting [10]), the half-life is 3.21 h and the half-life at 24 h is 3.2 h. Also, in series [6], the “histological scores of pancreatic tissue (H&E), inflammation and edema” value is “significantly ameliorate the histological scores; also recorded: efficacy in a mouse model of cerulein-induced AP”. Further, the “cytotoxicity in HEK cells up to 60 μM” value in the series with HEK cells [1] (up to 60 μM) is reported as “no detectable cytotoxicity”.

With `O=C(O)c1cccc(-c2cn(-c3ccc(-c4ccc5c(c4)OCCO5)cc3)nn2)c1` [Compound 38, 3-(1-(4-(2,3-Dihydrobenzo[b][1,4]dioxin-6-yl)phenyl)-1H-1,2,3-triazol-4-yl)benzoic Acid], the “AUC, peak amplitude, and slope” value in the series with SOCE [3] (HEK cells, Figure S1) is “induced a drop in the three parameters”.

In the case of `COc1ccc(F)c(-c2ccc(-n3cc(-c4cccc(C(=O)O)c4)nn3)cc2)c1` [Compound 40, 3-(1-(2′-Fluoro-5′-methoxy-[1,1′-biphenyl]-4-yl)-1H-1,2,3-triazol-4-yl)benzoic Acid], in the series on SOCE [3] (HEK cells, Figure S1), the “AUC, peak amplitude, and slope” value was “induced a drop in the three parameters”.

As for `COc1cccc(OC)c1-c1ccc(-c2cn(-c3cccc(C(=O)O)c3)nn2)cc1` [Compound 47, 3-(4-(2′,6′-Dimethoxy-[1,1′-biphenyl]-4-yl)-1H-1,2,3-triazol-1-yl)benzoic Acid], the “effect on SOCE, in words” value in the series with SOCE [3] (HEK cells) was “positive modulator of SOCE”. Besides, in the series with SOCE [3] (HEK cells, 3 μM), the “AUC of calcium entry and peak amplitude vs control” value was “significantly increased the AUC of calcium entry and the peak amplitude”; the “slope of the Ca2+-rise vs control” value is reported as “absence of effect on slope”. In addition, the inhibition at 3 µM with SOCE [3] (Homo sapiens, HEK293, HEK cells, 3 μM, negative value = increased SOCE, read-out: % SOCE inhibition (3 μM)) was -22.8 ± 0.9%.

In the case of `COc1cccc(-c2ccc(-c3cn(-c4cccc(C(=O)O)c4)nn3)cc2)c1OC` [Compound 50, 3-(4-(2′,3′-Dimethoxy-[1,1′-biphenyl]-4-yl)-1H-1,2,3-triazol-1-yl)benzoic Acid], the “AUC, peak amplitude, and slope” value with SOCE [3] (HEK cells, Figure S1) is “induced a drop in the three parameters”.

Take `COc1ccc(F)c(-c2ccc(-c3cn(-c4cccc(C(=O)O)c4)nn3)cc2)c1` [Compound 56, 3-(4-(2′-Fluoro-5′-methoxy-[1,1′-biphenyl]-4-yl)-1H-1,2,3-triazol-1-yl)benzoic Acid]: the “AUC, peak amplitude, and slope” value with SOCE [3] (HEK cells, Figure S1) is given as “induced a drop in the three parameters”.

Take `O=C(O)c1cccc(C(=O)Nc2ccc(-c3ccc4c(c3)OCCO4)cc2)c1` [Compound 64, 3-((4-(2,3-Dihydrobenzo[b][1,4]dioxin-6-yl)phenyl)carbamoyl)benzoic Acid]: the “effect on SOCE, in words” value in the series on SOCE [3] (HEK cells) is “significantly reduced activity compared to the parent compound”. For the same compound, in the series with HEK cells [1], the “cell viability / cytotoxicity” value is on record as “significant cytotoxicity” and the “reversal of cytotoxicity by uridine” value is given as “fully reverted by uridine”.

Take `O=C(O)c1cccc(NC(=O)c2ccc(-c3ccc4c(c3)OCCO4)cc2)c1` [Compound 69, 3-(4-(2,3-Dihydrobenzo[b][1,4]dioxin-6-yl)benzamido)benzoic Acid]: the “effect on SOCE, in words” value with SOCE [3] (HEK cells) is “significantly reduced activity compared to the parent compound”.

As to `O=C(Nc1ccn(Cc2ccc(O)cc2C(F)(F)F)n1)c1c(F)cccc1F` [GSK-7975A], in the series with chemically induced AP, the “protection in murine models of chemically induced AP” value is given as “protective”.

As for `COc1ccc(OC)c(-c2ccc(NC(=O)c3ccncc3F)cc2)c1` [Synta66, reference compound], in the series on SOCE [3] (HEK cells, 10 μM), the “AUC and peak amplitude of the Ca2+-rise vs control” value is “significantly reduced AUC and peak amplitude”; the “slope of the Ca2+-rise vs control” value was “significant effect on the slope”. Also, the inhibition at 10 µM in the series on SOCE [3] (Homo sapiens, HEK293, HEK cells, 10 μM, negative value = increased Ca2+ entry vs control) came out at 90.8 ± 1.7%. In addition, in the series with SOCE [3] (Homo sapiens, HEK293, supplementary CSV, HEK cells, read-out: % SOCE Inhibition (3 µM)), the inhibition at 3 µM worked out at 90.8 ± 1.7%. Besides, the IC50 in the series on ICRAC was 1.4 to 3 µM. Besides, in the series on HEK cells [1], the “cell viability / cytotoxicity” value is given as “significant cytotoxicity”.

In the case of `Cc1c(-c2ccc(-c3ccccc3F)cc2)nc2ccc(F)cc2c1C(=O)O` [brequinar], in the series with HEK cells [7], the “cell viability / cytotoxicity” value is recorded as “cytotoxic” and the “reversal of cytotoxicity by uridine” value is “reverted by uridine addition”.

Turning to `C/C(O)=C(\C#N)C(=O)Nc1ccc(C(F)(F)F)cc1` [teriflunomide], the IC50 in the series on SOCE [8] was 4.3 ± 1 µM.

Usually IC50 stands for the point on the concentration scale where inhibition reaches its midpoint. The solubility is the dissolved amount per volume that the medium holds. Broadly, the Cmax is the maximum level reached in the sampled fluid or tissue. As a reminder, the Tmax is the time from dosing to the highest level. As usually defined, the clearance is the rate of elimination divided by the concentration. As a reminder, the inhibition is the change of the read-out against control, counted positive when it falls.
